In publication PMC9274090, “Molecular Modeling of ABHD5 Structure and Ligand Recognition” (Frontiers in Molecular Biosciences, 2022):
Like-named read-outs stand apart in the source and are kept apart here.

Target: T1, Alpha/beta hydrolase domain-containing 5 (ABHD5, CGI-58) (Mus musculus, UniProt Q9DBL9)
T1 construct: ABHD5 fused to C-terminal fragment of G. princeps luciferase
T1 sequence (Q9DBL9 1-351): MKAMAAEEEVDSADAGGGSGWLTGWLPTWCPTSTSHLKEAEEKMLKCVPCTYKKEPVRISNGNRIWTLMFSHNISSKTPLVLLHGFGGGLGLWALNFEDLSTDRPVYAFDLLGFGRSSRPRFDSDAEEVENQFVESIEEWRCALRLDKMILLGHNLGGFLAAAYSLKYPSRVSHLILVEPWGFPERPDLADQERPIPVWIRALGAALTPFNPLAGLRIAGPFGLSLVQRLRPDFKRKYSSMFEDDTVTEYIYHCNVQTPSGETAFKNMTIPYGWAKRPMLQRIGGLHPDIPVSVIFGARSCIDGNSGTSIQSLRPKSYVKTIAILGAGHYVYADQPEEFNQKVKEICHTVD
T1 sequence (Q8BVZ1 1-463 partner): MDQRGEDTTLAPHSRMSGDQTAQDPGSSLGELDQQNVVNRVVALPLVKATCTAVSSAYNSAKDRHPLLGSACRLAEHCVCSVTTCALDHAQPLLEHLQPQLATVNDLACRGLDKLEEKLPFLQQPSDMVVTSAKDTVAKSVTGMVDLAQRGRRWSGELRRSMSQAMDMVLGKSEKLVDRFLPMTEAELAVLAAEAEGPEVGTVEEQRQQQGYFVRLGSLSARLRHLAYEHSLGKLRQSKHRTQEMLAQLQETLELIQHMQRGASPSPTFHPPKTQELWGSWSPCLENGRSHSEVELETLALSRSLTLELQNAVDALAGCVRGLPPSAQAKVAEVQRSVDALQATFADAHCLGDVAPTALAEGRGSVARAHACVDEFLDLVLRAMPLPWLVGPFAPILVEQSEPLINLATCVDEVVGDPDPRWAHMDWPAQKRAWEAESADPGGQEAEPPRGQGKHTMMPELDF
Assay: split luciferase complementation in cell lysates: ligand-induced dissociation of ABHD5-PLIN5
Assay type: biochemical

Row | IC50 (read-out: IC50) [µM] | Compound | IC50 [µM]
1 | 15.9 | O=C(Cc1cccc(F)c1)N1CCN(S(=O)(=O)c2ccc3c(c2)OCCO3)CC1 [SR3133, SR-03000003133] | –
2 | 8.9 | COc1ccc(CC(=O)N2CCN(S(=O)(=O)c3ccc4c(c3)OCCCO4)CC2)cc1 [SR3134, SR-03000003134] | –
3 | – | Cc1ccc2c(CC(=O)N3CCN(S(=O)(=O)c4ccc5c(c4)OCCO5)CC3)coc2c1 [SR4559, SR-01000604559] | 3.44
